From PMC4980083 (JCI insight, 2016)

What was measured:
[1] = tested on: ER LBD; assay: Fluorescence polarization competition binding, ER LBD
[2] = target: T1, endogenous full-length AR (Homo sapiens, UniProt P10275, T878A); assay: AR transcriptional activity, PSA
T1 sequence (P10275 1-920 T878A): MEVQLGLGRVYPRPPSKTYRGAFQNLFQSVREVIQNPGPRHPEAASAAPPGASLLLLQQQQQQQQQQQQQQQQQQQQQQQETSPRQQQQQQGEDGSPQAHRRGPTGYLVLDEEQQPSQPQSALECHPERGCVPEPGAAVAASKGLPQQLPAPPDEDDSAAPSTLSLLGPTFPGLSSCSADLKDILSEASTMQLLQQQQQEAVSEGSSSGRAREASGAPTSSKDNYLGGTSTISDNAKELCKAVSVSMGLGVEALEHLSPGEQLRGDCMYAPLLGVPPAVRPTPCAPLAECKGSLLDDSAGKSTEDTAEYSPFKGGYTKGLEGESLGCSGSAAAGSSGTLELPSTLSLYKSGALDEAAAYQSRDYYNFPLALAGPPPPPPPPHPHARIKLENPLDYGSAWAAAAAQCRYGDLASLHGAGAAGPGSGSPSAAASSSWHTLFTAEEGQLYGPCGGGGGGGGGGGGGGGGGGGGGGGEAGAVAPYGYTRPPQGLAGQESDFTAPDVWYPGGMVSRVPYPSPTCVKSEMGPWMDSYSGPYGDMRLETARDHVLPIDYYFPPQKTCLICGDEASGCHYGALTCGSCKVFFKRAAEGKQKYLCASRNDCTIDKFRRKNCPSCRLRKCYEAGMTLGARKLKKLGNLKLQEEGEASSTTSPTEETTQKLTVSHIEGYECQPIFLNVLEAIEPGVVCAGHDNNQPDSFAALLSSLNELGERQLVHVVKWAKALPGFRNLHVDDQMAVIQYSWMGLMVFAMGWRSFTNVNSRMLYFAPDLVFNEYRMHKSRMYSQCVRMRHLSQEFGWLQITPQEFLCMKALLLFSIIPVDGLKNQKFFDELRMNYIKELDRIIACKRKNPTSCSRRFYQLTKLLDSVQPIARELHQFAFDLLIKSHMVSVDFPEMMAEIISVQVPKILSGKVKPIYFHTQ

15-IodoEPI002 [I-EPI-002]
competition for ligand binding to ER LBD [1]: did not prevent ligand-binding
potency relative to EPI-002 ([2]; cell-based functional assays): 10 times
inhibition of AR transcriptional activity with increasing concentrations of androgen ([2]; increasing R1881, enzalutamide 5 μM, I-EPI-002 5 μM, EPI-002 25 μM): maintained effective inhibition
inhibition of AR transcriptional activity ([2]; ~2 μM, R1881 1 nM): 75%
